Earlier results in patent US20060240101A1, “Orally disintegrating pharmaceutical tablet formulations of olanzapine” (priority 2005, published 2006).

Conditions: for water solubility: at 20° C.

| water solubility | SMILES | solubility in water (2005 Physician Desk Reference label information for Zyprexa) |
| --- | --- | --- |
| approximately 170 g/l | OC[C@@H](O)[C@@H](O)[C@H](O)[C@H](O)CO [Pearlitol® 200 SD, mannitol] |  |
| approximately 250 g/l | OC[C@@H](O)[C@@H](O)[C@H](O)[C@H](O)CO [Pearlitol® 50C, mannitol] |  |
|  | Cc1cc2c(s1)Nc1ccccc1N=C2N1CCN(C)CC1 [olanzapine, 2-methyl-4-(4-methyl-1-piperanzinyl)-10H-thieno[2,3-b][1,5] benzodiazepine] | insoluble in water |
